# Counter-ions that a name gives are not always drawn.
# Columns and labels:
# HCT-116 cell line = assay: Inhibition of cell growth, MTT tetrazolium salt assay; format: cell-based; settings: for IC50: Homo sapiens, HCT-116, 120 h, MTT, three to five days
# Outline: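 Growth inhibition was read as MTT-formazan absorbance at 540 nm, after 4 h with 0.2 mg/mL MTT. Before that, HCT-116 cells had been exposed 3–5 days at 37 °C to compounds in 0.5% (v/v) DMSO, added 4 h after plating. 50% and 90% inhibitory concentrations were taken from semi-log concentration–inhibition plots versus vehicle controls.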
# CDK2/cyclin A = target: T1, CDK2/cyclin A (Homo sapiens, UniProt P24941); assay: Inhibition of CDK2/cyclin A retinoblastoma kinase activity (Ki; % inhibition); format: biochemical; settings: for Ki: apparent Ki, CDK2/cyclin A, Rb substrate
# T1 construct: made in house; host or cells: CDK2: insect cells (baculovirus); cyclin A: E. coli
# Outline: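 Radiometric filter assay of CDK2/proteolyzed cyclin A (baculovirus-expressed human CDK2, 10 or 19 nM) phosphorylating an Rb fragment with 25 μM [³²P/³³P]ATP in pH 7.4 HEPES, 2% DMSO, at 30 °C for 60 or 75 min under initial-rate conditions. Library compounds screened at 30 nM for % inhibition; apparent Ki from concentration series fit to competitive or tight-binding inhibition equations.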
# human CDK4/cyclin D3 = target: T2, human CDK4/cyclin D3 (Homo sapiens, UniProt P11802); assay: Inhibition of CDK4/cyclin D retinoblastoma kinase activity (Ki; % inhibition); format: biochemical; settings: for Ki: apparent Ki, CDK4/cyclin D3, Rb substrate
# T2 construct: made in house; host or cells: insect cells co-infected with baculovirus vectors
# Outline: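 Insect-cell-expressed CDK4 with truncated cyclin D3 (1-264), 5 nM, phosphorylating His-tagged Rb fragment (386-928) with 25 μM [32/33P]ATP at pH 7.4, 30 °C, 20 min (60 min for tight binders). Filter capture, phosphorimager read; % inhibition at 30 nM compound, Ki from competitive or tight-binding fits.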
# [1] = HCT-116 cells, 0.25 μM compound
# T2 sequence (P11802 whole entry): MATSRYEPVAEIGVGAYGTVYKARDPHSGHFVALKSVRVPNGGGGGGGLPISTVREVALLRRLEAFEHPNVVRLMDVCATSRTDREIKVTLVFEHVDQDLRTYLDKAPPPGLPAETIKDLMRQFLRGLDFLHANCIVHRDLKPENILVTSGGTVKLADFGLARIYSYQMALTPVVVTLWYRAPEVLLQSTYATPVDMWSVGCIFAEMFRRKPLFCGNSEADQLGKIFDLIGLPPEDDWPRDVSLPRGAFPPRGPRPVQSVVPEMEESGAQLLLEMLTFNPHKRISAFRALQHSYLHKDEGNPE
# T2 sequence (P30281 1-264 partner limits assumed): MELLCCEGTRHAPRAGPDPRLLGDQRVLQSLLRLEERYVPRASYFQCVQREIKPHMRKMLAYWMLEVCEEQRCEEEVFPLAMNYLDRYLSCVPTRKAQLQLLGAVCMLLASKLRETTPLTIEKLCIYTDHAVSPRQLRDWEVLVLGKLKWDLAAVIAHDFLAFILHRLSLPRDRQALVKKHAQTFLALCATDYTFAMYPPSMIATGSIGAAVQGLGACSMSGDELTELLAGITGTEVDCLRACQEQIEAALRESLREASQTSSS
CDK2 % Inhibition at 0.03 μM (CDK2/cyclin A; 0.03 μM compound),CDK4 % Inhibition at 0.03 μM (human CDK4/cyclin D3; 0.03 μM compound),CDK2 % Inhibition at 0.03 μM (CDK2/cyclin A; at 0.03 μM),CDK4 % Inhibition at 0.03 μM (human CDK4/cyclin D3; at 0.03 μM),Structure (SMILES),"HCT-116 % Inhibition at 0.1 μM (HCT-116 cell line; HCT-116 cells, 0.1 μM compound)",HCT-116 % Inhibition at 0.25 μM (HCT-116 cell line; [1]),"HCT-116 % Inhibition at 0.25 μM (HCT-116 cell line; HCT-116, at 0.25 μM)",other results
−7%,9%,–,–,Cc1cccc(NC(=O)c2ccc(Nc3nc(N)c(C(=O)c4c(F)cccc4F)s3)cc2)c1 [Example G280],7%,70%,–,–
−17%,0%,–,–,CCCCN(Cc1ccccc1)C(=O)c1ccc(Nc2nc(N)c(C(=O)c3c(F)cccc3F)s2)cc1 [Example G306],9%,44%,–,–
29%,34%,–,–,Nc1nc(Nc2ccc(C(=O)NCc3ccccc3F)cc2)sc1C(=O)c1c(F)cccc1F [Example G221],20%,74%,–,–
−14%,1%,–,–,Nc1nc(Nc2ccc(C(=O)N[C@H](CO)Cc3ccccc3)cc2)sc1C(=O)c1c(F)cccc1F [Example G318],16%,48%,–,–
–,–,26%,14%,CC(=O)Nc1ccc(NC(=O)c2ccc(Nc3nc(N)c(C(=O)c4c(F)cccc4F)s3)cc2)cc1 [Example G66],–,–,60%,–
–,–,–,–,"C[C@@H](CNC(=O)c1ccc(Nc2nc(N)c(C(=O)c3c(F)cccc3F)s2)cc1)N(C)C [Example A42, 4-[4-Amino-5-(2,6-difluoro-benzoyl)-thiazol-2-ylamino]-N-(2S-dimethylamino-propyl)-benzamide]",–,–,–,IC50 (HCT-116 cell line): 150 nM; Ki (CDK2/cyclin A): 165 nM; Ki (human CDK4/cyclin D3): 23 nM
26%,8%,–,–,Nc1nc(Nc2ccc(C(=O)Nc3cccc(-c4nnco4)c3)cc2)sc1C(=O)c1c(F)cccc1F [Example G369],21%,36%,–,–
28%,17%,–,–,Nc1nc(Nc2ccc(C(=O)Nc3ccc4[nH]ccc4c3)cc2)sc1C(=O)c1c(F)cccc1F [Example G227],17%,84%,–,–
–,–,2%,−3%,COc1ccc(C(F)(F)F)cc1NC(=O)c1ccc(Nc2nc(N)c(C(=O)c3c(F)cccc3F)s2)cc1 [Example G22],–,–,50%,–
–,–,6%,3%,Nc1nc(Nc2ccc(C(=O)Nc3cc(F)cc(F)c3)cc2)sc1C(=O)c1c(F)cccc1F [Example G68],–,–,59%,–
–,–,–,–,"Nc1nc(Nc2ccc(C(=O)NC[C@@H]3CCCN3)cc2)sc1C(=O)c1c(F)cccc1F [Example A8, 4-[4-Amino-5-(2,6-difluoro-benzoyl)-thiazol-2-ylamino]-N-(pyrrolidin-2S-yl-methyl)-benzamide]",–,–,–,IC50 (HCT-116 cell line): 740 nM; Ki (CDK2/cyclin A): 54 nM; Ki (human CDK4/cyclin D3): 5 nM
–,–,8%,27%,Nc1nc(Nc2ccc(C(=O)N3CCN(C(=O)c4ccco4)CC3)cc2)sc1C(=O)c1c(F)cccc1F [Example G32],–,–,55%,–
–,–,−23%,−3%,CN(C)C(=O)CN(C)C(=O)c1ccc(Nc2nc(N)c(C(=O)c3c(F)cccc3F)s2)cc1 [Example G5],–,–,47%,–
–,–,–,–,"CC(C)[C@H](CN(C)C)NC(=O)c1ccc(Nc2nc(N)c(C(=O)c3c(F)cccc3F)s2)cc1 [Example A47, 4-[4-Amino-5-(2,6-difluoro-benzoyl)-thiazol-2-ylamino]-N-(1R-dimethylaminomethyl-2-methyl-propyl)-benzamide]",–,–,–,IC50 (HCT-116 cell line): 580 nM; Ki (CDK2/cyclin A): 55 nM; Ki (human CDK4/cyclin D3): 5 nM
10%,11%,–,–,CCN(CCc1ccccn1)C(=O)c1ccc(Nc2nc(N)c(C(=O)c3c(F)cccc3F)s2)cc1 [Example G251],16%,48%,–,–
–,–,–,–,"CN1CCCC[C@H]1CNC(=O)c1ccc(Nc2nc(N)c(C(=O)c3c(F)cccc3F)s2)cc1 [Example A43, 4-[4-Amino-5-(2,6-difluoro-benzoyl)-thiazol-2-ylamino]-N-(1-methyl-piperidin-2S-yl-methyl)-benzamide]",–,–,–,IC50 (HCT-116 cell line): 580 nM; Ki (CDK2/cyclin A): 109 nM; Ki (human CDK4/cyclin D3): 13 nM

CDK2 % Inhibition at 0.03 μM (CDK2/cyclin A; 0.03 μM compound),CDK4 % Inhibition at 0.03 μM (human CDK4/cyclin D3; 0.03 μM compound),CDK2 % Inhibition at 0.03 μM (CDK2/cyclin A; at 0.03 μM),CDK4 % Inhibition at 0.03 μM (human CDK4/cyclin D3; at 0.03 μM),Structure (SMILES),"HCT-116 % Inhibition at 0.1 μM (HCT-116 cell line; HCT-116 cells, 0.1 μM compound)",HCT-116 % Inhibition at 0.25 μM (HCT-116 cell line; [1]),"HCT-116 % Inhibition at 0.25 μM (HCT-116 cell line; HCT-116, at 0.25 μM)",other results
–,–,4%,18%,Nc1nc(Nc2ccc(C(=O)N3CC=CC3)cc2)sc1C(=O)c1c(F)cccc1F [Example G40],–,–,61%,–
39%,40%,–,–,Nc1nc(Nc2ccc(C(=O)NCc3ccco3)cc2)sc1C(=O)c1c(F)cccc1F [Example G249],37%,80%,–,–
–,–,1%,22%,CCCOCCNC(=O)c1ccc(Nc2nc(N)c(C(=O)c3c(F)cccc3F)s2)cc1 [Example G165],–,–,61%,"HCT-116 % Inhibition at 0.1 μM (HCT-116 cell line; HCT-116, at 0.1 μM): 0%"
35%,39%,–,–,COc1cc(CNC(=O)c2ccc(Nc3nc(N)c(C(=O)c4c(F)cccc4F)s3)cc2)cc(OC)c1OC [Example G234],20%,63%,–,–
–,–,19%,18%,COC(=O)[C@H](C)NC(=O)c1ccc(Nc2nc(N)c(C(=O)c3c(F)cccc3F)s2)cc1 [Example G145],–,–,68%,"HCT-116 % Inhibition at 0.1 μM (HCT-116 cell line; HCT-116, at 0.1 μM): 0%"
–,–,–,–,"Cn1cnc(CNC(=O)c2ccc(Nc3nc(N)c(C(=O)c4c(F)cccc4F)s3)cc2)c1 [Example A63, 4-[4-Amino-5-(2,6-difluoro-benzoyl)-thiazol-2-ylamino]-N-(1-methyl-imidazol-4-yl-methyl)-benzamide Trifluoroacetic Acid Salt]",–,–,–,IC50 (HCT-116 cell line): 1600 nM; Ki (CDK2/cyclin A): 15.3 nM; Ki (human CDK4/cyclin D3): 18 nM
–,–,23%,38%,CCC(CO)NC(=O)c1ccc(Nc2nc(N)c(C(=O)c3c(F)cccc3F)s2)cc1 (centres unmarked) [Example G183],–,–,–,"HCT-116 % Inhibition at 0.1 μM (HCT-116 cell line; HCT-116, at 0.1 μM, 0.1 µM): 11%; HCT-116 % Inhibition at 0.25 μM (HCT-116 cell line; HCT-116, at 0.25 μM, 0.25 µM): 48%"
–,–,15%,31%,CC(CO)NC(=O)c1ccc(Nc2nc(N)c(C(=O)c3c(F)cccc3F)s2)cc1 (centres unmarked) [Example G175],–,–,–,"HCT-116 % Inhibition at 0.1 μM (HCT-116 cell line; HCT-116, at 0.1 μM, 0.1 µM): 11%; HCT-116 % Inhibition at 0.25 μM (HCT-116 cell line; HCT-116, at 0.25 μM, 0.25 µM): 47%"
15%,−10%,–,–,Nc1nc(Nc2ccc(C(=O)NC(CO)CSCc3ccccc3)cc2)sc1C(=O)c1c(F)cccc1F (centres unmarked) [Example G383],33%,51%,–,–
–,–,–,–,"C[C@H](CN1CCCCC1)NC(=O)c1ccc(Nc2nc(N)c(C(=O)c3c(F)cccc3F)s2)cc1 [Example A46, 4-[4-Amino-5-(2,6-difluoro-benzoyl)-thiazol-2-ylamino]-N-(1R-methyl-2-piperidin-1-yl-ethyl)-benzamide Trifluoroacetate Salt]",–,–,–,IC50 (HCT-116 cell line): 86 nM; Ki (CDK2/cyclin A): 220 nM; Ki (human CDK4/cyclin D3): 15 nM
–,–,–,–,"Cn1ccnc1CNC(=O)c1ccc(Nc2nc(N)c(C(=O)c3c(F)cccc3F)s2)cc1 [Example A50, 4-[4-Amino-5-(2,6-difluoro-benzoyl)-thiazol-2-ylamino]-N-(1-methyl-1H-imidazol-2-ylmethyl)-benzamide Hydrochloride Salt]",–,–,–,IC50 (HCT-116 cell line): 170 nM; Ki (CDK2/cyclin A): 20 nM; Ki (human CDK4/cyclin D3): 15 nM
–,–,−3%,10%,Nc1nc(Nc2ccc(C(=O)N3CCSC3)cc2)sc1C(=O)c1c(F)cccc1F [Example G33],–,–,54%,–
8%,20%,–,–,Nc1nc(Nc2ccc(C(=O)Nc3ccc(OC(F)(F)F)cc3)cc2)sc1C(=O)c1c(F)cccc1F [Example G230],19%,52%,–,–
–,–,−30%,2%,CCCCC(CC)NC(=O)c1ccc(Nc2nc(N)c(C(=O)c3c(F)cccc3F)s2)cc1 (centres unmarked) [Example G90],–,–,54%,"HCT-116 % Inhibition at 0.1 μM (HCT-116 cell line; HCT-116, at 0.1 μM): 24%"
–,–,–,–,"CC1(C)CC(CNC(=O)c2ccc(Nc3nc(N)c(C(=O)c4c(F)cccc4F)s3)cc2)C(C)(C)N1 (centres unmarked) [Example A56, 4-[4-Amino-5-(2,6-difluoro-benzoyl)-thiazol-2-ylamino]-N-(2,2,5,5-tetramethyl-pyrrolidin-3R,S-ylmethyl)-benzamide Dihydrochloride Salt]",–,–,–,IC50 (HCT-116 cell line): 4500 nM; Ki (CDK2/cyclin A): 67 nM; Ki (human CDK4/cyclin D3): 8 nM
13%,8%,–,–,Nc1nc(Nc2ccc(C(=O)N(CCO)Cc3ccccc3)cc2)sc1C(=O)c1c(F)cccc1F [Example G379],31%,54%,–,–
